From patent US6218398A, “Nocathiacin antibiotics” (Bristol-Myers Squibb Company, priority 1999, dated 2001)
Converted amounts (≈) assume the structure as drawn. Read-outs that look alike come from different tables or passages of the source.

What was measured:
[1] = system: Enterococcus faecium strain A28152; assay: antibiotic susceptibility of the MREF strain; assay type: cell-based; settings: strain description; source not stated
[2] = system: Streptococcus pneumoniae A9585; assay: MIC by conventional serial broth dilution assay; assay type: cell-based
[3] = system: Streptococcus pneumoniae/penicillin intermediate A27881; assay: MIC by conventional serial broth dilution assay; assay type: cell-based
[4] = system: Streptococcus pneumoniae/penicillin resistant A28272; assay: MIC by conventional serial broth dilution assay; assay type: cell-based
[5] = system: Enterococcus faecalis A20688; assay: MIC by conventional serial broth dilution assay; assay type: cell-based
[6] = system: Enterococcus faecalis A27519; assay: MIC by conventional serial broth dilution assay; assay type: cell-based
[7] = system: Enterococcus faecium A24885; assay: MIC by conventional serial broth dilution assay; assay type: cell-based
[8] = system: Enterococcus avium A27456; assay: MIC by conventional serial broth dilution assay; assay type: cell-based
[9] = system: Staphylococcus aureus/β-lactamase positive A15090; assay: MIC by conventional serial broth dilution assay; assay type: cell-based
[10] = system: Staphylococcus aureus/QC/ATCC#29213 A24407; assay: MIC by conventional serial broth dilution assay; assay type: cell-based
[11] = system: Staphylococcus aureus/homo methicillin resistant A27223; assay: MIC by conventional serial broth dilution assay; assay type: cell-based
[12] = system: Staphylococcus epidermidis A24548; assay: MIC by conventional serial broth dilution assay; assay type: cell-based
[13] = system: Staphylococcus haemolyticus A27298; assay: MIC by conventional serial broth dilution assay; assay type: cell-based
[14] = system: Moraxella catarrhalis/β-lactamase positive A22344; assay: MIC by conventional serial broth dilution assay; assay type: cell-based
[15] = system: Moraxella catarrhalis/β-lactamase positive A25409; assay: MIC by conventional serial broth dilution assay; assay type: cell-based
[16] = system: Haemophilus influenzae/β-lactamase negative A20191; assay: MIC by conventional serial broth dilution assay; assay type: cell-based; settings: β-lactamase negative, read-out: MIC
[17] = system: Haemophilus influenzae/β-lactamase negative A20183; assay: MIC by conventional serial broth dilution assay; assay type: cell-based; settings: β-lactamase negative, read-out: MIC
[18] = system: Haemophilus influenzae/β-lactamase positive A21515; assay: MIC by conventional serial broth dilution assay; assay type: cell-based; settings: β-lactamase positive, read-out: MIC
Gram-positive bacteria [19] = assay: in vitro activity against Gram-positive bacteria; assay type: cell-based; settings: e.g. multiple drug resistant Enterococcus faecium
Gram-positive bacteria [20] = settings: reported for known thiazolyl peptides; cited from earlier work
[21] = system: Streptococcus pyogenes A9604; assay: MIC by conventional serial broth dilution assay; assay type: cell-based
[22] = system: Enterococcus faecium/thiostrepton resistant (10 ug/ml) SC15829; assay: MIC by conventional serial broth dilution assay; assay type: cell-based
[23] = system: Staphylococcus aureus A9537; assay: MIC by conventional serial broth dilution assay; assay type: cell-based
[24] = system: Staphylococcus aureus/hetero methicillin resistant A27218; assay: MIC by conventional serial broth dilution assay; assay type: cell-based
Micrococcus luteus A9852 = assay: MIC by conventional serial broth dilution assay; assay type: cell-based
Bacillus subtilis A9506A = assay: MIC by conventional serial broth dilution assay; assay type: cell-based
Escherichia coli A15119 = assay: MIC by conventional serial broth dilution assay; assay type: cell-based
Escherichia coli A22292 = assay: MIC by conventional serial broth dilution assay; assay type: cell-based
[25] = system: Escherichia coli/AcrA::Kan A28901; assay: MIC by conventional serial broth dilution assay; assay type: cell-based
[26] = system: Salmonella enteritidis A9531; assay: MIC by conventional serial broth dilution assay; assay type: cell-based; settings: Salmonella enterica
Salmonella/WT A27207 = assay: MIC by conventional serial broth dilution assay; assay type: cell-based
Salmonella/RE A27208 = assay: MIC by conventional serial broth dilution assay; assay type: cell-based
[27] = β-lactamase positive, read-out: MIC

teicoplanin
resistance/sensitivity of E. faecium strain A28152 to the antibiotic [1]: resistant

C=C(NC(=O)c1csc(-c2nc3c(cc2O)-c2nc(cs2)C(=O)NC(C(C)O)C(=O)NC(=C(C)OC)c2nc(cs2)C(=O)NC2c4nc(cs4)C(=O)NC(COC(=O)c4c5c6c(cccc6n4O)COC(=O)C(O)C2OC5)c2nc-3cs2)n1)C(N)=O (centres unmarked) [Nocathiacin III]
MIC ([2]; read-out: MIC): ≤ 0.002 µg/mL | MIC ([3]; penicillin intermediate, read-out: MIC): ≤ 0.002 µg/mL | MIC ([4]; penicillin resistant, read-out: MIC): ≤ 0.002 µg/mL | MIC ([5]; A20688, + 50% calf serum, read-out: MIC): 0.25 µg/mL | MIC ([5]; A20688, read-out: MIC): 0.03 µg/mL (≈ 0.0237 µM) | MIC ([6]; read-out: MIC): 0.03 µg/mL (≈ 0.0237 µM) | MIC ([7]; read-out: MIC): 0.03 µg/mL (≈ 0.0237 µM) | MIC ([8]; read-out: MIC): 0.03 µg/mL (≈ 0.0237 µM) | MIC ([9]; + 50% calf serum, read-out: MIC): 0.03 µg/mL | MIC [9, 27]: 0.007 µg/mL (≈ 0.00553 µM) | MIC ([10]; ATCC29213, QC/ATCC#29213, read-out: MIC): 0.007 µg/mL (≈ 0.00553 µM) | MIC ([11]; homo methicillin resistant, read-out: MIC): 0.007 µg/mL (≈ 0.00553 µM) | MIC ([12]; read-out: MIC): 0.007 µg/mL (≈ 0.00553 µM) | MIC ([13]; read-out: MIC): 0.007 µg/mL (≈ 0.00553 µM) | MIC [14, 27]: 0.06 µg/mL (≈ 0.0474 µM) | MIC [15, 27]: 0.06 µg/mL (≈ 0.0474 µM) | MIC [16]: > 64 µg/mL | MIC [17]: > 64 µg/mL | MIC [18]: > 64 µg/mL | inhibitory activity against Gram-positive bacteria (Gram-positive bacteria [19]): inhibitory activity at the nanomolar level

CN(C)C1C(=O)C(C(N)=O)=C(O)C2(O)C(=O)C3=C(O)c4c(O)cccc4C(C)(O)C3CC12 (centres unmarked) [tetracycline]
resistance/sensitivity of E. faecium strain A28152 to the antibiotic [1]: resistant

C=C(NC(=O)c1csc(-c2nc3c(cc2O)-c2nc(cs2)C(=O)NC(C(C)O)C(=O)N/C(=C\C)c2nc(cs2)C(=O)NC2CC(O)C(=O)OCc4cccc5[nH]c(c(C)c45)C(=O)SCC(NC(=O)c4csc2n4)c2nc-3cs2)n1)C(N)=O (centres unmarked) [nosiheptide]
antimicrobial activity against Gram-positive bacteria in vitro (Gram-positive bacteria [20]): potent antimicrobial activity

[H]/N=C(/N)N[C@H]1[C@H](O)[C@@H](O)[C@H](O[C@@H]2O[C@@H](C)[C@](O)(C=O)[C@H]2O[C@@H]2O[C@@H](CO)[C@H](O)[C@@H](O)[C@@H]2NC)[C@@H](N/C(N)=N\[H])[C@@H]1O [streptomycin]
resistance/sensitivity of E. faecium strain A28152 to the antibiotic [1]: resistant

O=C(N[C@H](CO)[C@H](O)c1ccc([N+](=O)[O-])cc1)C(Cl)Cl [chloramphenicol]
resistance/sensitivity of E. faecium strain A28152 to the antibiotic [1]: sensitive

C=C(NC(=O)c1csc(-c2nc3c(cc2O)-c2nc(cs2)C(=O)NC(C(C)O)C(=O)NC(=C(C)OC)c2nc(cs2)C(=O)NC2c4nc(cs4)C(=O)NC(COC(=O)c4[nH]c5cccc6c5c4COC2C(OC2CC(C)(O)C(N(C)C)C(C)O2)C(=O)OC6)c2nc-3cs2)n1)C(N)=O (centres unmarked) [Nocathiacin II]
MIC [2]: 0.015 µg/mL (≈ 0.0106 µM) | MIC [3]: 0.015 µg/mL (≈ 0.0106 µM) | MIC [4]: 0.015 µg/mL (≈ 0.0106 µM) | MIC [21]: 0.125 µg/mL (≈ 0.0879 µM) | MIC ([5]; A20688): 0.5 µg/mL (≈ 0.352 µM) | MIC ([5]; A20688, + 50% calf serum): 0.5 µg/mL | MIC [6]: 0.5 µg/mL (≈ 0.352 µM) | MIC [7]: 0.5 µg/mL (≈ 0.352 µM) | MIC [22]: 0.5 µg/mL (≈ 0.352 µM) | MIC [8]: 0.5 µg/mL (≈ 0.352 µM) | MIC [23]: 0.06 µg/mL (≈ 0.0422 µM) | MIC ([9]; + 50% calf serum): 0.5 µg/mL | MIC ([9]; β-lactamase positive): 0.5 µg/mL (≈ 0.352 µM) | MIC ([10]; ATCC29213): 0.5 µg/mL (≈ 0.352 µM) | MIC ([24]; + 50% calf serum): 0.5 µg/mL | MIC ([24]; hetero methicillin resistant): 0.5 µg/mL (≈ 0.352 µM) | MIC ([11]; + 50% calf serum): 0.125 µg/mL | MIC ([11]; homo methicillin resistant): 0.125 µg/mL (≈ 0.0879 µM) | MIC (Micrococcus luteus A9852): 0.125 µg/mL (≈ 0.0879 µM) | MIC (Bacillus subtilis A9506A): 0.125 µg/mL (≈ 0.0879 µM) | MIC [12]: 0.125 µg/mL (≈ 0.0879 µM) | MIC [13]: 0.25 µg/mL (≈ 0.176 µM) | MIC (Escherichia coli A15119): > 128 µg/mL | MIC (Escherichia coli A22292): > 128 µg/mL | MIC [25]: > 128 µg/mL | MIC [26]: > 128 µg/mL | MIC [14]: 0.125 µg/mL (≈ 0.0879 µM) | MIC [15]: 0.125 µg/mL (≈ 0.0879 µM) | MIC (Salmonella/WT A27207): > 128 µg/mL | MIC (Salmonella/RE A27208): > 128 µg/mL | inhibitory activity against Gram-positive bacteria (Gram-positive bacteria [19]): inhibitory activity at the nanomolar level

C=C(NC(=O)C(=C)NC(=O)c1csc(C2=N[C@@H]3c4csc(n4)[C@H]4NC(=O)c5csc(n5)[C@H]([C@](C)(O)[C@@H](C)O)NC(=O)[C@H]5CSC(=N5)/C(=C/C)NC(=O)[C@H]([C@@H](C)O)NC(=O)c5csc(n5)[C@]3(CC2)NC(=O)[C@H](C)NC(=O)C(=C)NC(=O)[C@H](C)NC(=O)[C@H]([C@@H](C)CC)N[C@@H]2C=Cc3c([C@H](C)O)cc(nc3[C@H]2O)C(=O)O[C@@H]4C)n1)C(N)=O [thiostrepton]
antimicrobial activity against Gram-positive bacteria in vitro (Gram-positive bacteria [20]): potent antimicrobial activity

O=C(O)c1cn(C2CC2)c2cc(N3CCNCC3)c(F)cc2c1=O [ciprofloxacin]
resistance/sensitivity of E. faecium strain A28152 to the antibiotic [1]: resistant

CN[C@H](CC(C)C)C(=O)N[C@H]1C(=O)N[C@@H](CC(N)=O)C(=O)N[C@H]2C(=O)N[C@H]3C(=O)N[C@H](C(=O)N[C@H](C(=O)O)c4cc(O)cc(O)c4-c4cc3ccc4O)[C@H](O)c3ccc(c(Cl)c3)Oc3cc2cc(c3O[C@@H]2O[C@H](CO)[C@@H](O)[C@H](O)[C@H]2O[C@H]2C[C@](C)(N)[C@H](O)[C@H](C)O2)Oc2ccc(cc2Cl)[C@H]1O [vancomycin]
resistance/sensitivity of E. faecium strain A28152 to the antibiotic [1]: resistant

CO[C@H]1/C=C/O[C@@]2(C)Oc3c(C)c(O)c4c(O)c(c(/C=N/N5CCN(C)CC5)c(O)c4c3C2=O)NC(=O)/C(C)=C\C=C\[C@H](C)[C@H](O)[C@@H](C)[C@@H](O)[C@@H](C)[C@H](OC(C)=O)[C@@H]1C [rifampin]
resistance/sensitivity of E. faecium strain A28152 to the antibiotic [1]: resistant

CC1(C)S[C@@H]2[C@H](NC(=O)Cc3ccccc3)C(=O)N2[C@H]1C(=O)O [penicillin G]
resistance/sensitivity of E. faecium strain A28152 to the antibiotic [1]: resistant

CO/C(C)=C1/NC(=O)[C@H]([C@@H](C)O)NC(=O)c2csc(n2)-c2cc(O)c(-c3nc(C(N)=O)cs3)nc2-c2csc(n2)[C@@H]2CSC(=O)c3[nH]c4cccc5c4c3CO[C@@H](C(NC(=O)c3csc1n3)c1nc(cs1)C(=O)N2)[C@@H](O[C@H]1C[C@](C)(O)[C@H](N(C)C)[C@H](C)O1)C(=O)OC5 [glycothiohexide-α]
antimicrobial activity against Gram-positive bacteria in vitro (Gram-positive bacteria [20]): potent antimicrobial activity

CCC[C@@H]1C[C@@H](C(=O)N[C@@H]([C@H]2O[C@H](SC)[C@H](O)[C@@H](O)[C@H]2O)[C@H](C)Cl)N(C)C1 [clindamycin]
resistance/sensitivity of E. faecium strain A28152 to the antibiotic [1]: resistant

gentamicin
resistance/sensitivity of E. faecium strain A28152 to the antibiotic [1]: resistant

CC[C@H]1OC(=O)[C@H](C)[C@@H](O[C@H]2C[C@@](C)(OC)[C@@H](O)[C@H](C)O2)[C@H](C)[C@@H](O[C@@H]2O[C@H](C)C[C@H](N(C)C)[C@H]2O)[C@](C)(O)C[C@@H](C)C(=O)[C@H](C)[C@@H](O)[C@]1(C)O [erythromycin]
resistance/sensitivity of E. faecium strain A28152 to the antibiotic [1]: resistant
